Literature values, collected in US8445438B2, “Compositions comprising capture peptides for A β-amyloid peptide” (Recombinant Technologies LLC, priority 2008, dated 2013).

Test system: Aβ
Conditions: peptide based on the GxFxGxF scaffold

Aβ, sequence (P05067 672-711 limits assumed): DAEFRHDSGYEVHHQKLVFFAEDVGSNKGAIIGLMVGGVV

RGTWEGKW (listed as Homo sapiens)
cellular toxicity: reduce cellular toxicity
